Source: patent US20250275943A1, “COMPOSITION FOR CANCER DIAGNOSIS TARGETING TUMOR AND/OR TUMOR MICROENVIRONMENT AND USE THEREOF” (Korea University Research and Business Foundation, priority 2024, published 2025)
Like-named read-outs stand apart in the source and are kept apart here.

Key:
[1] = Mouse tissue staining experiment, fluorescence of extracted organs; conditions: normal mouse, organs extracted 4 hours after injection; FIG. 9
From the text: (§1) Each graph represents the fluorescence signal of each organ.

[2] = tested on: A549 cancer cells, which do not express folate receptors, and H522 cancer cells, which express folate receptors; experiment: Fluorescent contrast observation of cancer cells with and without folate receptor expression; type: cell-based; conditions: A549 (no folate receptors) vs H522 (folate receptors); FIG. 5A, 5B
From the text: Accordingly, it was identified that FMK-2 had no cytotoxicity.

[3] = mouse, in vivo
From the text: as §1

SMILES	fluorescence signal of each organ [1]	fluorescence expression in cancer cells depending on folate receptor expression [2]	fluorescence signal of each organ [3]
CC1(C)C(/C=C/C2=C(Cl)C(=C/C=C3/N(CCC(=O)O)c4ccc(S(=O)(=O)O)cc4C3(C)C)/CCC2)=[N+](CCC(=O)O)c2ccc(S(=O)(=O)[O-])cc21 [Compound 1, 3-(2-((E)-2-((E)-3-(2-((E)-1-(2-carboxyethyl)-3,3-dimethyl-5-sulfoindolin-2-ylidene)ethylidene)-2-chlorocyclohex-1-en-1-yl)vinyl)-3,3-dimethyl-5-sulfo-3H-indol-1-ium-1-yl)propanoate]	signals were higher in the liver and kidneys compared to other organs		
CC1(C)C(/C=C/C2=C(Cl)C(=C/C=C3/N(CCC(=O)NC4O[C@@H](CO)[C@H](O)[C@@H](O)[C@H]4O)c4ccc(S(=O)(=O)O)cc4C3(C)C)/CCC2)=[N+](CCC(=O)NC2O[C@H](CO)[C@@H](O)[C@H](O)[C@@H]2O)c2ccc(S(=O)(=O)O)cc21 (stereo partly drawn) [Compound 2, 2-((E)-2-((E)-2-chloro-3-(2-((E)-3,3-dimethyl-1-(3-oxo-3-(((3R,4R,5R,6S)-3,4,5-trihydroxy-6-(hydroxymethyl)tetrahydro-2H-pyran-2-yl)amino)propyl)-5-sulfoindolin-2-ylidene)ethylidene)cyclohex-1-en-1-yl)vinyl)-3,3-dimethyl-1-(3-oxo-3-(((3S,4S,5S,6R)-3,4,5-trihydroxy-6-(hydroxymethyl)tetrahydro-2H-pyran-2-yl)amino)propyl)-5-sulfo-3H-indol-1-ium]		expressed fluorescence in cancer cells regardless of whether folate receptors were expressed	overall signals were identified in all organs
CC1(C)C(/C=C/C2=C(SCCOCCOCCNC(=O)CCC(NC(=O)c3ccc(NCc4cnc5nc(N)nc(O)c5n4)cc3)C(=O)O)C(=C/C=C3/N(CCC(=O)O)c4ccc(S(=O)(=O)O)cc4C3(C)C)/CCC2)=[N+](CCC(=O)O)c2ccc(S(=O)(=O)[O-])cc21 (stereo not shown) [Compound 4, 2-((E)-2-((E)-2-((1-(4-(((2-amino-4-oxo-1,4-dihydropteridin-7-yl)methyl)amino)phenyl)-3-carboxy-1,6-dioxo-10,13-dioxa-2,7-diazapentadecan-15-yl)thio)-3-(2-((E)-1-(2-carboxyethyl)-3,3-dimethyl-5-sulfoindolin-2-ylidene)ethylidene)cyclohex-1-en-1-yl)vinyl)-1-(2-carboxyethyl)-3,3-dimethyl-5-sulfo-3H-indol-1-ium]	signals were identified in the kidneys and small intestine		
